From ChEMBL document CHEMBL1125176, “Synthesis of structural analogues of lyngbyatoxin A and their evaluation as activators of protein kinase C” (J Med Chem, 1991)

Molecular target: Protein kinase C (PKC) (Homo sapiens) (UniProt O94806+P41743+P17252+P05129+Q05655+P05771+Q05513+Q02156+P24723+Q15139+Q04759)
Assay: Activation of partially purified HeLa cell protein kinase C, 32P incorporation into calf thymus histone(III-S).

SMILES | Activity (pM min-1 (mg of protein)-1)
CC(C)=CCCCc1ccc2c3c(c[nH]c13)C[C@@H](CO)NC(=O)[C@H](C(C)C)N2C | 763
CC(C)[C@H]1C(=O)N[C@@H](CO)Cc2c[nH]c3c(CCCCO)ccc(c23)N1C | 163
CC(C)[C@H]1C(=O)N[C@H](CO)Cc2c[nH]c3c(CCCCO)ccc(c23)N1C | 256
CC(C)[C@H]1C(=O)N[C@@H](CO)Cc2c[nH]c3c(CCCCO[Si](C)(C)C(C)(C)C)ccc(c23)N1C | 403
CC(C)=CCCCc1ccc2c3c(c[nH]c13)C[C@H](CO)NC(=O)[C@H](C(C)C)N2C | 415
CC(C)[C@H]1C(=O)N[C@H](CO)Cc2c[nH]c3cccc(c23)N1C | 454
CC(C)[C@H]1C(=O)N[C@H](CO)Cc2c[nH]c3c(CCCCO[Si](C)(C)C(C)(C)C)ccc(c23)N1C | 703
CCCCCCc1ccc2c3c(c[nH]c13)C[C@@H](CO)NC(=O)[C@H](C(C)C)N2C | 606
CCCCCCCCCCCCCC(=O)O[C@@H]1[C@@H](C)[C@@]2(O)[C@@H](C=C(CO)C[C@]3(O)C(=O)C(C)=C[C@@H]23)[C@@H]2C(C)(C)[C@]12OC(C)=O | 899
